Results as given in patent US12187742B2 (XRAD Therapeutics, Inc., priority 2018, dated 2025).
Structures can show the parent of a compound that is named as a salt.

Key:
ATM = ATM (Homo sapiens (Human), UniProt Q13315); test: ATM in Cell Western Assay (pKAP1 in etoposide-treated MCF-7 cells); format: cell-based; conditions: pKAP1 in etoposide-treated MCF-7 cells
In short: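 After paraformaldehyde fixation and Triton X-100 permeabilization, immunostained plates were read by infrared scanning (ODYSSEY CLx). Compound was given as 10 doses, 3-fold dilutions from a 1 μM final top concentration.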

DNA-PK = DNA-PK (Homo sapiens (Human), UniProt P78527); test: DNA-PK Enzyme-Linked Immunosorbent Assay (phosphorylation of GST-p53 (1-101) peptide); format: biochemical; conditions: ELISA, 20 μM ATP
In short: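 Inhibition measured by 450 nm absorbance after HRP/TMB detection of phospho-Ser15 on immobilized GST-p53 (1-101). The kinase reaction used 0.1 μg/mL DNA-PK and 20 μM ATP, 1 h at 25 °C. Ten 3-fold compound dilutions, top final concentration 100 nM.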

Chain of ATM (Q13315 whole entry): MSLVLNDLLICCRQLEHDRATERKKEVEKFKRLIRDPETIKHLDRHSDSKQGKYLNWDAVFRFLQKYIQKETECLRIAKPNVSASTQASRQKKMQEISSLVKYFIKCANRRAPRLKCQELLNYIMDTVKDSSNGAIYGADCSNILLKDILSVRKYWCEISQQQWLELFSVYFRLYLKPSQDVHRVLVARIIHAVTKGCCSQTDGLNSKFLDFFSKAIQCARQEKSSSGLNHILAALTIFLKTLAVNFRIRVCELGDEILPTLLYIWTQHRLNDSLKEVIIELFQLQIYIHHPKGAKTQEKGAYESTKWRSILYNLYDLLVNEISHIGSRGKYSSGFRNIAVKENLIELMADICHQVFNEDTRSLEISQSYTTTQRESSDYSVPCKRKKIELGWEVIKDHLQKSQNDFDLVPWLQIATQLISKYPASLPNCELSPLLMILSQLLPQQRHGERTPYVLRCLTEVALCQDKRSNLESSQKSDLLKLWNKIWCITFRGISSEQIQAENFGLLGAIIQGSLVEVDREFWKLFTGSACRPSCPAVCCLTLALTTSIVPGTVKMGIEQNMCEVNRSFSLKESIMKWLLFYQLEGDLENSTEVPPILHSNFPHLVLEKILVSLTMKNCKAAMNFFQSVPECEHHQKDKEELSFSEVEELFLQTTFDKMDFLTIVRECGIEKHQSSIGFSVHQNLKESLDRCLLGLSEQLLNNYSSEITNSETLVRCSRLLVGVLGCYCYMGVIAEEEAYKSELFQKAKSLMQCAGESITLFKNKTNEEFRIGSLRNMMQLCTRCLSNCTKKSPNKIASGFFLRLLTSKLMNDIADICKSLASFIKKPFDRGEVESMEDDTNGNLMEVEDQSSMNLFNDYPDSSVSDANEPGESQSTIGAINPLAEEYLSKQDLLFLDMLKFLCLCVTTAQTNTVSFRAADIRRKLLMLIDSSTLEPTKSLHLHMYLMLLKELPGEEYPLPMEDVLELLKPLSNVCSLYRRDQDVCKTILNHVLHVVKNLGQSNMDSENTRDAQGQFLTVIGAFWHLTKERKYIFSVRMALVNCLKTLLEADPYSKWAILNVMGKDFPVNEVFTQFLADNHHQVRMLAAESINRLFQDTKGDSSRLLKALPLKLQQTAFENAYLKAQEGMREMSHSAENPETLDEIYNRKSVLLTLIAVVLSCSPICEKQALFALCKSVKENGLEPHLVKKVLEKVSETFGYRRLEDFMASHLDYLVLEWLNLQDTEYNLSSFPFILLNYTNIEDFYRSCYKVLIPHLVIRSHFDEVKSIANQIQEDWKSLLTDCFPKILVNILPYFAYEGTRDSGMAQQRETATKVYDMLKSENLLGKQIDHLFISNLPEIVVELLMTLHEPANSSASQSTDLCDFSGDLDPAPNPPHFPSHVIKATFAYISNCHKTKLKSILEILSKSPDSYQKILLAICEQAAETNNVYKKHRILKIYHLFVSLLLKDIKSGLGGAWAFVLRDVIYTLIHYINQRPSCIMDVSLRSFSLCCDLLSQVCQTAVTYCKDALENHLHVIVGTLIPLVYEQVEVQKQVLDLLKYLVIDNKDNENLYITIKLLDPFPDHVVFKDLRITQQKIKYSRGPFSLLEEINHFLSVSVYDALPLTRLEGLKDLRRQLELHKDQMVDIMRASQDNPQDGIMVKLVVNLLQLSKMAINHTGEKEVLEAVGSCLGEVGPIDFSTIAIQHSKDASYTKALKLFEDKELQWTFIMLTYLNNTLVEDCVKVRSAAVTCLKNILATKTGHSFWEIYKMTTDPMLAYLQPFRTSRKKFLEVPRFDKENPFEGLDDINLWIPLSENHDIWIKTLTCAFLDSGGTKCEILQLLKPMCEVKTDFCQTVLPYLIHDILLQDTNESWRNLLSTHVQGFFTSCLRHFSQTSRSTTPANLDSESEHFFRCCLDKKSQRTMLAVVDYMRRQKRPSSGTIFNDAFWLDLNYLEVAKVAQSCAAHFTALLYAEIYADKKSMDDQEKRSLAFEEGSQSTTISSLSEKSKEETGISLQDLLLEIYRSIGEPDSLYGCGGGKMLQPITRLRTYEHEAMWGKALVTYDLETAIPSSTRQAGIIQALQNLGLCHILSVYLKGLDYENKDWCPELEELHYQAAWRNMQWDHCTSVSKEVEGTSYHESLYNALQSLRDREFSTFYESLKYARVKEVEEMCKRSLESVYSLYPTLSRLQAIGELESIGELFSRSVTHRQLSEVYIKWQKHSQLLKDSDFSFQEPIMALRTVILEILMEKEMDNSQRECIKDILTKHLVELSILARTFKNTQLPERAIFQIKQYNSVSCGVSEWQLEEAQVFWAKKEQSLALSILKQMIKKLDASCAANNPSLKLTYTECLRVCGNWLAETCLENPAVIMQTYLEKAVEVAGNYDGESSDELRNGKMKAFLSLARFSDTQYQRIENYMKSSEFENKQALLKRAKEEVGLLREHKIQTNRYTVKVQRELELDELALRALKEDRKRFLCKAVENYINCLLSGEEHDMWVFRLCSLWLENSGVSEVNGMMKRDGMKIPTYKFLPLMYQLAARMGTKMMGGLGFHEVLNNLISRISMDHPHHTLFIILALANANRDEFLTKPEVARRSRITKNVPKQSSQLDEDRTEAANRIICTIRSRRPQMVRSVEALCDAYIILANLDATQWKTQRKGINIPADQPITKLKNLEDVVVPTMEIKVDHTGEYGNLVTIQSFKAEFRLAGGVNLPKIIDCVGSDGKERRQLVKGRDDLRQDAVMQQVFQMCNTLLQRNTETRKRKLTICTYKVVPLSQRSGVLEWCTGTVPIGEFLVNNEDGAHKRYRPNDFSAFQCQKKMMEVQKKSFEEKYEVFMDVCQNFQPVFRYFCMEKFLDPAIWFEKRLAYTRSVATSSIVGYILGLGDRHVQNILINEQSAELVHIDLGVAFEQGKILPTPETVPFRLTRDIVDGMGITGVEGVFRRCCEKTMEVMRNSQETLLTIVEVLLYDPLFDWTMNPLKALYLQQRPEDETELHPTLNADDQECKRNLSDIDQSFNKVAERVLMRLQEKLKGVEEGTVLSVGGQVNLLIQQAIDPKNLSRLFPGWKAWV

IC50 (ATM)	IC50 (DNA-PK)	Structure (SMILES)
1 to 100 nM	1 to 100 nM	CO[C@H]1C[C@@]2(C1)C(=O)N(C)c1cnc3cc(F)c(-c4cnc(N5CCC(N6CCCCC6)CC5)c(NS(C)(=O)=O)c4)cc3c12 [Example 392]
1 to 100 nM	1 to 100 nM	CCO[C@H]1C[C@]2(C1)C(=O)N(C)c1cnc3cc(F)c(-c4cnc(OCCNC(C)C)c(NS(C)(=O)=O)c4)cc3c12 [Example 393, cis-N-(5-(3-Ethoxy-7′-fluoro-3′-methyl-2′-oxo-2′,3′-dihydrospiro[cyclobutane-1,1′-pyrrolo[2,3-c]quinolin]-8′-yl)-2-(2-(isopropylamino)ethoxy)pyridin-3-yl) methanesulfonamide]
1 to 100 nM	1 to 100 nM	CC(C)NCCOc1ncc(-c2cc3c(cc2F)ncc2c3[C@]3(C[C@H](OC(C)C)C3)C(=O)N2C)cc1NS(C)(=O)=O [Example 395, cis-N-(5-(7′-Fluoro-3-isopropoxy-3′-methyl-2′-oxo-2′,3′-dihydrospiro[cyclobutane-1,1′-pyrrolo[2,3-c]quinolin]-8′-yl)-2-(2-(isopropylamino)ethoxy)pyridin-3-yl)methanesulfonamide]
1 to 100 nM	< 0.5 nM	CC(C)NCCOc1ncc(-c2cc3c(cc2F)ncc2c3[C@]3(C[C@H](OC(C)c4ccccc4)C3)C(=O)N2C)cc1NS(C)(=O)=O (stereo partly drawn) [Example 397, cis-N-(5-(7′-Fluoro-3′-methyl-2′-oxo-3-(1-phenylethoxy)-2′,3′-dihydrospiro[cyclobutane-1,1′-pyrrolo[2,3-c]quinolin]-8′-yl)-2-(2-(isopropylamino)ethoxy)pyridin-3-yl)methanesulfonamide]
0.5 to 1 nM	1 to 100 nM	CC(C)NCCOc1ncc(-c2cc3c(cc2F)ncc2c3[C@]3(C[C@H](Oc4ccccc4)C3)C(=O)N2C)cc1NS(C)(=O)=O [Example 400, cis-N-(5-(7′-Fluoro-3′-methyl-2′-oxo-3-phenoxy-2′,3′-dihydrospiro[cyclobutane-1,1′-pyrrolo[2,3-c]quinolin]-8′-yl)-2-(2-(isopropylamino)ethoxy)pyridin-3-yl)methanesulfonamide]
1 to 100 nM	1 to 100 nM	CC(C)NCCOc1ncc(-c2cc3c(cc2F)ncc2c3[C@]3(C[C@H](Oc4ccccc4)C3)C(=O)N2C)cc1NS(=O)(=O)N(C)C [Example 402, cis-8′-{5-[(Dimethylsulfamoyl)amino]-6-{2-[(propan-2-ylamino]ethoxy}pyridine-3-yl}-7′-fluoro-3′-methyl-3-phenoxy-2′,3′-dihydrospiro[cyclobutane-1,1′-pyrrolo[2,3-c]quinoline]-2′-one hydrochloride]
1 to 100 nM	0.5 to 1 nM	COC[C@H]1C[C@]2(C1)C(=O)N(C)c1cnc3cc(F)c(-c4cnc(OCCNC(C)C)c(NS(C)(=O)=O)c4)cc3c12 [Example 404, cis-N-(5-(7′-Fluoro-3-(methoxymethyl)-3′-methyl-2′-oxo-2′,3′-dihydrospiro[cyclobutane-1,1′-pyrrolo[2,3-c]quinolin]-8′-yl)-2-(2-(isopropylamino)ethoxy)pyridin-3-yl)methanesulfonamide]
1 to 100 nM	0.5 to 1 nM	CCOC[C@H]1C[C@]2(C1)C(=O)N(C)c1cnc3cc(F)c(-c4cnc(OCCNC(C)C)c(NS(C)(=O)=O)c4)cc3c12 [Example 406, cis-N-(5-(3-(Ethoxymethyl)-7′-fluoro-3′-methyl-2′-oxo-2′,3′-dihydrospiro[cyclobutane-1,1′-pyrrolo[2,3-c]quinolin]-8′-yl)-2-(2-(isopropylamino)ethoxy)pyridin-3-yl)methanesulfonamide]
1 to 100 nM	< 0.5 nM	CC(C)NCCOc1ncc(-c2cc3c(cc2F)ncc2c3[C@]3(C[C@H](COc4ccccc4)C3)C(=O)N2C)cc1NS(C)(=O)=O [Example 409, cis-N-(5-(7′-Fluoro-3′-methyl-2′-oxo-3-(phenoxymethyl)-2′,3′-dihydrospiro[cyclobutane-1,1′-pyrrolo[2,3-c]quinolin]-8′-yl)-2-(2-(isopropylamino)ethoxy)pyridin-3-yl)methanesulfonamide]
1 to 100 nM	< 0.5 nM	CC(C)NCCOc1ncc(-c2cc3c(cc2F)ncc2c3[C@]3(C[C@H](COC(C)C)C3)C(=O)N2C)cc1NS(C)(=O)=O [Example 410, cis-N-(5-(7′-Fluoro-3-(isopropoxymethyl)-3′-methyl-2′-oxo-2′,3′-dihydrospiro[cyclobutane-1,1′-pyrrolo[2,3-c]quinolin]-8′-yl)-2-(2-(isopropylamino)ethoxy)pyridin-3-yl)methanesulfonamide]
1 to 100 nM	1 to 100 nM	CC(C)NCCOc1ncc(-c2cc3c(cc2F)ncc2c3[C@]3(C[C@H](COC(C)C)C3)C(=O)N2C)cc1NS(=O)(=O)C(C)C [Example 412, cis-N-(5-(7′-Fluoro-3-(isopropoxymethyl)-3′-methyl-2′-oxo-2′,3′-dihydrospiro[cyclobutane-1,1′-pyrrolo[2,3-c]quinolin]-8′-yl)-2-(2-(isopropylamino)ethoxy)pyridin-3-yl)propane-2-sulfonamide]
1 to 100 nM	1 to 100 nM	CC(C)NCCOc1ncc(-c2cc3c(cc2F)ncc2c3[C@]3(C[C@H](c4ccccc4)C3)C(=O)N2C)cc1NS(C)(=O)=O [Example 414, cis-N-(5-(7′-Fluoro-3′-methyl-2′-oxo-3-phenyl-2′,3′-dihydrospiro[cyclobutane-1,1′-pyrrolo[2,3-c]quinolin]-8′-yl)-2-(2-(isopropylamino)ethoxy)pyridin-3-yl)methanesulfonamide hydrochloride]
1 to 100 nM	1 to 100 nM	CC(C)NCCOc1ncc(-c2cc3c(cc2F)ncc2c3[C@]3(C[C@@H](c4ccccc4)C3)C(=O)N2C)cc1NS(C)(=O)=O [Example 415, trans-N-(5-(7′-Fluoro-3′-methyl-2′-oxo-3-phenyl-2′,3′-dihydrospiro[cyclobulane-1,1′-pyrrolo[2,3-c]quinolin]-8′-yl)-2-(2-(isopropylamino)ethoxy)pyridin-3-yl)methanesulfonamide hydrochloride]
1 to 100 nM	1 to 100 nM	CC(C)NCCOc1ncc(-c2cc3c(cc2F)ncc2c3[C@]3(C[C@H](c4ccc(Cl)cc4)C3)C(=O)N2C)cc1NS(C)(=O)=O [Example 416, cis-N-(5-(3-(4-Chlorophenyl)-7′-fluoro-3′-methyl-2′-oxo-2′,3′-dihydrospiro[cyclobutane-1,1′-pyrrolo[2,3-c]quinolin]-8′-yl)-2-(2-(isopropylamino)ethoxy)pyridin-3-yl)methanesulfonamide]
> 100 nM	1 to 100 nM	CC(C)NCCOc1ncc(-c2cc3c(cc2F)ncc2c3[C@]3(C[C@@H](c4ccc(Cl)cc4)C3)C(=O)N2C)cc1NS(C)(=O)=O [Example 417, trans-N-(5-(3-(4-Chlorophenyl)-7′ fluoro-3′-methyl-2′-oxo-2′,3′-dihydrospiro[cyclobutane-1,1′-pyrrolo[2,3-c]quinolin]-8′-yl)-2-(2-(isopropylamino)ethoxy)pyridin-3-yl)methanesulfonamide]
1 to 100 nM	1 to 100 nM	CC(C)NCCOc1ncc(-c2cc3c(cc2F)ncc2c3[C@]3(C[C@H](c4cccc(Cl)c4)C3)C(=O)N2C)cc1NS(C)(=O)=O [Example 418, cis-N-(5-(3-(3-Chlorophenyl)-7′-fluoro-3′-methyl-2′-oxo-2′,3′-dihydrospiro[cyclobutane-1,1′-pyrrolo[2,3-c]quinolin]-8′-yl)-2-(2-(isopropylamino)ethoxy)pyridin-3-yl)methanesulfonamide]
> 100 nM	1 to 100 nM	CC(C)NCCOc1ncc(-c2cc3c(cc2F)ncc2c3[C@]3(C[C@@H](c4cccc(Cl)c4)C3)C(=O)N2C)cc1NS(C)(=O)=O [Example 419, trans-N-(5-(3-(3-Chlorophenyl)-7′-fluoro-3′-methyl-2′-oxo-2′,3′-dihydrospiro[cyclobutane-1,1′-pyrrolo[2,3-c]quinolin]-8′-yl)-2-(2-(isopropylamino)ethoxy)pyridin-3-yl)methanesulfonamide]
1 to 100 nM	1 to 100 nM	COc1ccc([C@H]2C[C@]3(C2)C(=O)N(C)c2cnc4cc(F)c(-c5cnc(OCCNC(C)C)c(NS(C)(=O)=O)c5)cc4c23)cc1 [Example 420, cis-N-(5-(7′-Fluoro-3-(4-methoxyphenyl)-3-methyl-2′-oxo-2′,3′-dihydrospiro[cyclobulane-1,1′-pyrrolo[2,3-c]quinolin]-8′-yl)-2-(2-(isopropylamino)ethoxy)pyridin-3-yl)methanesulfonamide hydrochloride]
> 100 nM	1 to 100 nM	COc1ccc([C@H]2C[C@@]3(C2)C(=O)N(C)c2cnc4cc(F)c(-c5cnc(OCCNC(C)C)c(NS(C)(=O)=O)c5)cc4c23)cc1 [Example 421, hydrochloride]
1 to 100 nM	1 to 100 nM	CC(C)NCCOc1ncc(-c2cc3c(cc2F)ncc2c3[C@]3(C[C@@H](c4ccc(F)cc4)C3)C(=O)N2C)cc1NS(C)(=O)=O [Example 423, trans-N-(5-(7′-Fluoro-3-(4-fluorophenyl)-3′-methyl-2′-oxo-2′,3′-dihydrospiro[cyclobutane-1,1′-pyrrolo[2,3-c]quinolin]-8′-yl)-2-(2-(isopropylamino)ethoxy)pyridin-3-yl)methanesulfonamide]
1 to 100 nM	1 to 100 nM	CC(C)NCCOc1ncc(-c2cc3c(cc2F)ncc2c3[C@]3(C[C@H](c4cccc(F)c4)C3)C(=O)N2C)cc1NS(C)(=O)=O [Example 424, cis-N-(5-(7′-Fluoro-3-(3-fluorophenyl)-3′-methyl-2′-oxo-2′,3′-dihydrospiro[cyclobutane-1,1′-pyrrolo[2,3-c]quinolin]-8′-yl)-2-(2-(isopropylamino)ethoxy)pyridin-3-yl)methanesulfonamide]
